Entries after “also recorded” stand apart in the source; their conditions may differ.
Legend:
[1] = tested on: MDA-MB-436 human breast cancer xenograft tumors; test: MicroPET imaging with [^18F]12 in MDA-MB-436 tumor-bearing mice; format: in vivo; conditions: MDA-MB-436 tumors in mice; olaparib 50 mg/kg i.p. or 12 1 mg/kg i.p., 20 min prior to tracer injection
[2] = tested on: MDA-MB-231 tumors; test: MicroPET imaging with [^18F]12 in MDA-MB-231 tumor-bearing mice; format: in vivo; conditions: MDA-MB-231 tumor in mice; olaparib i.p. 50 mg/kg 20 min pretreatment; time-radioactivity curves

| Compound | Effect of pretreatment on [^18F]12 uptake in tumor (blocking) [1] | Effect of pretreatment on [^18F]12 uptake in tumor (blocking) [2] |
| --- | --- | --- |
| O=C1NCCn2c(-c3ccc(OCCF)cc3)nc3cccc1c32 [Compound 12, 5,6-Dihydro-2-(4-(2-fluoroethoxy)phenyl)-imidazo[4,5,1-jk][1,4]benzodiazepin-7(4H)-ones] | decreased [^18F]12 uptake in the tumors to the background tissue activity levels; also recorded: blocked |  |
| O=C(c1cc(Cc2n[nH]c(=O)c3ccccc23)ccc1F)N1CCN(C(=O)C2CC2)CC1 [olaparib] | blocked; also recorded: decreased [^18F]12 uptake in the tumors to the background tissue activity levels | decreased [^18F]12 uptake |

From article PMC4020173 (Bioorganic & medicinal chemistry, 2014)
